Laboratory results as given in the supplement of paper PMC6045584.
± gives the standard deviation of the averaged measurements.

Assays:
DASATINIB = compound: Cc1nc(Nc2ncc(C(=O)Nc3c(C)cccc3Cl)s2)cc(N2CCN(CCO)CC2)n1 [DASATINIB]; experiment: surviving fraction relative to DMSO-only wells; higher = less growth inhibition; details: exposure time: 5 days
Summary of the method: (§1)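 Log-phase tumour cell lines, 250–500 cells per well in 384-well plates, received inhibitors at 0.5, 1, 5, 10, 50, 100, 500 and 1000 nM continuously for five days, starting 24 hours after seeding. Viability was quantified with CellTiter-Glo luminescence and normalised to the median of DMSO-only wells to give surviving fraction. Three screens were run per line, and a line stayed in only with replicate Pearson r >0.7 and median Z' >0.3.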

OLAPARIB = compound: O=C(c1cc(Cc2n[nH]c(=O)c3ccccc23)ccc1F)N1CCN(C(=O)C2CC2)CC1 [OLAPARIB]; experiment: as above; details: exposure time: 5 days
Summary of the method: as §1

| Test System | surviving fraction (DASATINIB; 0.5 nM) | surviving fraction (DASATINIB; 1 nM) | surviving fraction (DASATINIB; 5 nM) | surviving fraction (DASATINIB; 10 nM) | surviving fraction (DASATINIB; 50 nM) | surviving fraction (DASATINIB; 100 nM) | surviving fraction (DASATINIB; 500 nM) | surviving fraction (DASATINIB; 1000 nM) | surviving fraction (OLAPARIB; 0.5 nM) | surviving fraction (OLAPARIB; 1 nM) | surviving fraction (OLAPARIB; 5 nM) | surviving fraction (OLAPARIB; 10 nM) | surviving fraction (OLAPARIB; 50 nM) | surviving fraction (OLAPARIB; 100 nM) | surviving fraction (OLAPARIB; 500 nM) | surviving fraction (OLAPARIB; 1000 nM) |
| --- | --- | --- | --- | --- | --- | --- | --- | --- | --- | --- | --- | --- | --- | --- | --- | --- |
| HCC1395 BREAST | 0.813 ± 0.065 | 0.961 ± 0.1 | 0.891 ± 0.068 | 0.902 ± 0.044 | 0.763 ± 0.093 | 0.704 ± 0.091 | 0.583 ± 0.067 | 0.591 ± 0.017 | 0.85 ± 0.034 | 0.934 ± 0.12 | 1.06 ± 0.065 | 1.03 ± 0.037 | 0.93 ± 0.11 | 1.02 ± 0.059 | 0.787 ± 0.096 | 0.799 ± 0.17 |
| NOS1 BONE | 0.817 ± 0.083 | 0.726 ± 0.086 | 0.587 ± 0.026 | 0.464 ± 0.021 | 0.296 ± 0.004 | 0.256 ± 0.028 | 0.2 ± 0.026 | 0.193 ± 0.014 | 1.09 ± 0.13 | 0.985 ± 0.096 | 0.981 ± 0.063 | 0.999 ± 0.079 | 0.828 ± 0.062 | 0.773 ± 0.049 | 0.553 ± 0.065 | 0.521 ± 0.071 |
| RDES SOFT TISSUE | 0.849 ± 0.23 | 0.762 ± 0.2 | 0.775 ± 0.067 | 0.767 ± 0.14 | 0.981 ± 0.09 | 0.934 ± 0.057 | 0.975 ± 0.059 | 0.9887 ± 0.0031 | 1.16 ± 0.19 | 1.11 ± 0.23 | 1.14 ± 0.15 | 0.966 ± 0.14 | 0.85 ± 0.14 | 0.8 ± 0.093 | 1.01 ± 0.065 | 1.41 ± 0.088 |
| MDAMB453 BREAST | 1.03 ± 0.046 | 0.995 ± 0.047 | 1.06 ± 0.018 | 1 ± 0.047 | 1.03 ± 0.025 | 1.02 ± 0.052 | 1 ± 0.036 | 1.02 ± 0.091 | 0.989 ± 0.063 | 1 ± 0.036 | 0.989 ± 0.07 | 0.964 ± 0.059 | 0.966 ± 0.042 | 0.936 ± 0.018 | 1.03 ± 0.025 | 0.916 ± 0.025 |
| NY BONE | 0.9257 ± 0.0085 | 0.881 ± 0.011 | 0.828 ± 0.015 | 0.753 ± 0.018 | 0.471 ± 0.018 | 0.366 ± 0.031 | 0.288 ± 0.012 | 0.263 ± 0.027 | 1.01 ± 0.016 | 1.03 ± 0.013 | 1.05 ± 0.039 | 1.05 ± 0.061 | 1.09 ± 0.031 | 1.06 ± 0.055 | 0.95 ± 0.022 | 0.849 ± 0.04 |
| HOS BONE | 0.906 ± 0.018 | 0.908 ± 0.022 | 0.821 ± 0.015 | 0.763 ± 0.048 | 0.693 ± 0.0078 | 0.604 ± 0.015 | 0.382 ± 0.035 | 0.358 ± 0.014 | 1.03 ± 0.022 | 1.03 ± 0.026 | 1.06 ± 0.0091 | 1.012 ± 0.0081 | 1.02 ± 0.028 | 1.01 ± 0.023 | 1.01 ± 0.026 | 0.953 ± 0.041 |
| CAL51 BREAST | 0.838 ± 0.069 | 0.8707 ± 0.0049 | 0.832 ± 0.047 | 0.737 ± 0.046 | 0.491 ± 0.036 | 0.386 ± 0.025 | 0.248 ± 0.019 | 0.238 ± 0.033 | 0.97 ± 0.044 | 1 ± 0.051 | 0.95 ± 0.025 | 0.926 ± 0.07 | 0.948 ± 0.03 | 0.882 ± 0.076 | 0.828 ± 0.024 | 0.66 ± 0.051 |
| MDAMB134 BREAST | 0.71 ± 0.023 | 0.687 ± 0.0057 | 0.531 ± 0.013 | 0.534 ± 0.096 | 0.704 ± 0.018 | 0.6445 ± 0.0035 | 0.635 ± 0.019 | 0.606 ± 0.0064 | 0.96 ± 0.055 | 1.04 ± 0.17 | 1.04 ± 0.13 | 1.05 ± 0.03 | 0.971 ± 0.21 | 0.738 ± 0.042 | 0.8595 ± 0.0035 | 0.823 ± 0.028 |
| KPD BONE | 0.909 ± 0.063 | 0.851 ± 0.053 | 0.781 ± 0.044 | 0.73 ± 0.0072 | 0.579 ± 0.039 | 0.481 ± 0.03 | 0.39 ± 0.016 | 0.336 ± 0.025 | 0.983 ± 0.011 | 0.946 ± 0.024 | 0.969 ± 0.024 | 0.995 ± 0.093 | 0.959 ± 0.059 | 0.965 ± 0.022 | 0.765 ± 0.007 | 0.711 ± 0.033 |
| MG63 BONE | 0.899 ± 0.035 | 0.901 ± 0.013 | 0.785 ± 0.015 | 0.691 ± 0.0046 | 0.469 ± 0.0076 | 0.357 ± 0.012 | 0.204 ± 0.0021 | 0.194 ± 0.0071 | 1.03 ± 0.034 | 1.061 ± 0.0049 | 1.06 ± 0.031 | 1.06 ± 0.033 | 1.023 ± 0.001 | 1.024 ± 0.01 | 0.939 ± 0.027 | 0.879 ± 0.019 |
